The target of this assay is T1, Human CXCR4 transfected HEK293 cells (Homo sapiens, UniProt P61073).
T1 construct: expressed in transfected cells; host or cells: HEK293
T1 sequence (P61073 whole entry): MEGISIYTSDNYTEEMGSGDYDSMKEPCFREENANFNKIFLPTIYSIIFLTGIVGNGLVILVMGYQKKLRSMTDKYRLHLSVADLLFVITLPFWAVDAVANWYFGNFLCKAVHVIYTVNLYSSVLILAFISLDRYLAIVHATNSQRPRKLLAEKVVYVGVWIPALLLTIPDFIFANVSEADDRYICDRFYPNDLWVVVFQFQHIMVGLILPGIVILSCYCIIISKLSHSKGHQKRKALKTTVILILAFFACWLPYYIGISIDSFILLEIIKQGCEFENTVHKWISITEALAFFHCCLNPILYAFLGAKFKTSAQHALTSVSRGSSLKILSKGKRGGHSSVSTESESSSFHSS
Description: CXCR4 functional calcium assay (calcium flux FLIPR, antagonism of SDF1 response). The class given is cell-based. The conditions noted are these: CXCR4 functional activity, antagonism of SDF1 (EC50 concentration), read-out: CXCR4 fKi. In outline: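 Dose-dependent antagonism of the SDF1 response was read by FLIPR as Fluo-4 calcium signal (2 μM dye) in CXCR4-expressing human HEK293 cells, in HBSS with probenecid, BSA and HEPES at pH 7.4 and 37° C. Test compound was given before an EC50-level SDF1 challenge. Curves were then fitted.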
(A change in cytosolic calcium serves as a functional read-out for many receptors and channels.)
Turning to `CCCc1cnc(-c2cccc(N3CCCN(C4CCN(C(C)C)CC4)CC3)n2)[nH]1` [Example 109, 1-[1-(Propan-2-yl)piperidin-4-yl]-4-[6-(4-propyl-1H-imidazol-2-yl)pyridine-2-yl]-1,4-diazepane], the Ki was 20 to 100 nM. Consider `CC(C)N1CCC(N2CCCN(c3cccc(C(=O)NCCCn4ccnc4)n3)CC2)CC1` [Example 3, N-[3-(1H-Imidazol-1-yl)propyl]-6-{4-[1-(propan-2-yl)piperidin-4-yl]-1,4-diazepan-1-yl}pyridine-2-carboxamide], for which the Ki lay in the range of 100 to 500 nM.

On to `c1cc(NCCNCCCNC2CCCC2)nc(-c2ncc(C3CC3)[nH]2)c1` [Example 237, N-(2-{[3-(Cyclopentylamino)propyl]amino}ethyl)-6-(5-cyclopropyl-1H-imidazol-2-yl)pyridin-2-amine], for which the Ki was 100 to 500 nM. Take `CCCCNC(=O)c1cccc(N2CCCN(C3CCN(C(C)C)CC3)CC2)n1` [Example 7, N-Butyl-6-{4-[1-(propan-2-yl)piperidin-4-yl]-1,4-diazepan-1-yl}pyridine-2-carboxamide]: the Ki fell in the range of 20 to 100 nM.

Consider `CC(C)CCNC(=O)c1cccc(N2CCCN(C3CCN(Cc4ccccc4Cl)CC3)CC2)n1` [Example 49, 6-(4-{1-[(2-Chlorophenyl)methyl]piperidin-4-yl}-1,4-diazepan-1-yl)-N-(3-methylbutyl)pyridine-2-carboxamide], for which the Ki is 100 to 500 nM. In the case of `[2H]C1([2H])CCN(c2cccc(C(=O)NCC3CC3)n2)CCN1C1CCN(C(C)C)CC1` [Example 192, N-(Cyclopropylmethyl)-6-{5,5-dihydrogenio-4-[1-(propan-2-yl)piperidin-4-yl]-1,4-diazepan-1-yl}pyridine-2-carboxamide], the Ki lay in the range of 20 to 100 nM. As for `COCc1nc(-c2cccc(N3CCCN(C4CCN(C(C)C)CC4)CC3)n2)no1` [Example 163, 1-{6-[5-(Methoxymethyl)-1,2,4-oxadiazol-3-yl]pyridine-2-yl}-4-[1-(propan-2-yl)piperidin-4-yl]-1,4-diazepane], the figure is 100 to 500 nM. As for `CC(C)N1CCC(N2CCCN(c3cccc(-c4nc5ccccc5o4)n3)CC2)CC1` [Example 152, 2-(6-{4-[1-(Propan-2-yl)piperidin-4-yl]-1,4-diazepan-1-yl}pyridine-2-yl)-1,3-benzoxazole], the figure is 100 to 500 nM. As for `[2H]C1([2H])CCN(c2cccc(C(=O)Nc3ccncc3)n2)CCN1C1CCN(Cc2ccc(F)cc2Cl)CC1` [Example 203, 6-(4-{1-[(2-Chloro-4-fluorophenyl)methyl]piperidin-4-yl}-5,5-dihydrogenio-1,4-diazepan-1-yl)-N-(pyridin-4-yl)pyridine-2-carboxamide], the figure is under 20 nM. Turning to `O=C(Nc1ccncc1)c1cccc(N2CC[C@@H](NC[C@@H]3CCN(C4CCCC4)C3)C2)n1` [Example 226, 6-[(3R)-3-({[(3S)-1-Cyclopentylpyrrolidin-3-yl]methyl}amino)pyrrolidin-1-yl]-N-(pyridin-4-yl)pyridine-2-carboxamide], the Ki is under 20 nM. For the molecule `CC(C)N1CCC(N2CCCN(c3cccc(-c4cc5cnccc5[nH]4)n3)CC2)CC1` [Example 97, 1-[1-(Propan-2-yl)piperidin-4-yl]-4-(6-{1H-pyrrolo[3,2-c]pyridine-2-yl}pyridine-2-yl)-1,4-diazepane], the Ki lay within 100 to 500 nM.

For `Cc1cc(NC(=O)c2cccc(N3CCCN(C4CCN(C(C)C)CC4)CC3)n2)cc(C)n1` [Example 87, N-(2,6-Dimethylpyridin-4-yl)-6-{4-[1-(propan-2-yl)piperidin-4-yl]-1,4-diazepan-1-yl}pyridine-2-carboxamide], the Ki was under 20 nM. Regarding `COc1ccc2[nH]c(-c3cccc(N4CCCN(C5CCN(C(C)C)CC5)CC4)n3)cc2c1` [Example 105, 5-Methoxy-2-(6-{4-[1-(propan-2-yl)piperidin-4-yl]-1,4-diazepan-1-yl}pyridine-2-yl)-1H-indole], the Ki fell in the range of 500 to 1000 nM.

Consider `CC(C)N1CC[C@@H](N2CCCN(c3cccc(C(=O)NCC4CC4)n3)CC2)[C@H](O)C1` [Example 216, N-(Cyclopropylmethyl)-6-{4-[(3R)-3-hydroxy-1-(propan-2-yl)piperidin-4-yl]-1,4-diazepan-1-yl}pyridine-2-carboxamide], for which the Ki lay within 100 to 500 nM. `CCCCc1cnc(-c2cccc(N3CCCN(C4CCN(C(C)C)CC4)CC3)n2)o1` [Example 171, 1-[6-(5-Butyl-1,3-oxazol-2-yl)pyridin-2-yl]-4-[1-(propan-2-yl)piperidin-4-yl]-1,4-diazepane]: the Ki lay within 500 to 1000 nM.

With `CC(C)N1CCC(N2CCCN(c3cccc(C(=O)NCCO)n3)CC2)CC1` [Example 12, N-(2-Hydroxyethyl)-6-{4-[1-(propan-2-yl)piperidin-4-yl]-1,4-diazepan-1-yl}pyridine-2-carboxamide], the Ki lay in the range of 100 to 500 nM. `CC(C)N1CCC(N2CCCN(c3cccc(C(=O)Nc4ccncc4)n3)CC2C)CC1` (stereo not drawn) [Example 193, 6-{3-Methyl-4-[1-(propan-2-yl)piperidin-4-yl]-1,4-diazepan-1-yl}-N-(pyridin-4-yl)pyridine-2-carboxamide]: the Ki is under 20 nM. With `O=C(NCC1CC1)c1cccc(N2CCCN(C3CCN(Cc4cccc(Cl)c4)CC3)CC2)n1` [Example 134, 6-(4-{1-[(3-Chlorophenyl)methyl]piperidin-4-yl}-1,4-diazepan-1-yl)-N-(cyclopropylmethyl)pyridine-2-carboxamide] the figure was 100 to 500 nM. Regarding `[2H]C1([2H])CCN(c2cccc(C(=O)Nc3ccncc3)n2)CCN1C1CCN(C(C)C)CC1F` (stereo not drawn) [Example 187, 6-{4-[3-Fluoro-1-(propan-2-yl)piperidin-4-yl]-5,5-dihydrogenio-1,4-diazepan-1-yl}-N-(pyridin-4-yl)pyridine-2-carboxamide], the Ki fell in the range of 20 to 100 nM. As for `CC(C)N1CCC(N2CCCN(c3cccc(-c4cc5ccc(C#N)cc5[nH]4)n3)CC2)CC1` [Example 103, 2-(6-{4-[1-(Propan-2-yl)piperidin-4-yl]-1,4-diazepan-1-yl}pyridine-2-yl)-1H-indole-6-carbonitrile], the figure is 100 to 500 nM; as for `CC(C)N1CCC(N2CCCN(c3cccc(-c4cc5ccncc5[nH]4)n3)CC2)CC1` [Example 98, 1-[1-(Propan-2-yl)piperidin-4-yl]-4-(6-{1H-pyrrolo[2,3-c]pyridine-2-yl}pyridine-2-yl)-1,4-diazepane], 20 to 100 nM. As to `CC(C)N1CCC(N2CCCN(c3cccc(C(=O)Nc4ccccc4O)n3)CC2)CC1` [Example 24, N-(2-Hydroxyphenyl)-6-{4-[1-(propan-2-yl)piperidin-4-yl]-1,4-diazepan-1-yl}pyridine-2-carboxamide], the Ki was in the range of 20 to 100 nM. As to `O=C(NCc1ccncc1)c1cccc(N2CCCN(C3CCN(Cc4ccccc4Cl)CC3)CC2)n1` [Example 56, 6-(4-{1-[(2-Chlorophenyl)methyl]piperidin-4-yl}-1,4-diazepan-1-yl)-N-(pyridine-4-ylmethyl)pyridine-2-carboxamide], the Ki was under 20 nM. As for `CC(C)N1CCC(N2CCCN(c3cccc(-c4nc5cnccc5[nH]4)n3)CC2)CC1` [Example 106, 1-(6-{3H-Imidazo[4,5-c]pyridin-2-yl}pyridin-2-yl)-4-[1-(propan-2-yl)piperidin-4-yl]-1,4-diazepane], the Ki was under 20 nM. Regarding `COCCNC(=O)c1cccc(N2CCCN(C3CCN(C(C)C)CC3)CC2)n1` [Example 14, N-(2-Methoxyethyl)-6-{4-[1-(propan-2-yl)piperidin-4-yl]-1,4-diazepan-1-yl}pyridine-2-carboxamide], the Ki was 20 to 100 nM. As to `CC(C)N1CCC(N2CCCN(c3cccc(-c4noc(-c5ccccc5)n4)n3)CC2)CC1` [Example 164, 1-[6-(5-Phenyl-1,2,4-oxadiazol-3-yl)pyridine-2-yl]-4-[1-(propan-2-yl)piperidin-4-yl]-1,4-diazepane], the Ki was in the range of 20 to 100 nM.

With `CC(C)N1CCC(N2CCCN(c3cccc(C(=O)N4CCc5ccccc5C4)n3)CC2)CC1` [Example 22, 2-[(6-{4-[1-(Propan-2-yl)piperidin-4-yl]-1,4-diazepan-1-yl}pyridin-2-yl)carbonyl]-1,2,3,4-tetrahydroisoquinoline], the Ki lay within 100 to 500 nM. For the molecule `CC(C)N1CCC(N2CCCN(c3cccc(C(=O)NCc4ccccn4)n3)CC2)CC1` [Example 33, 6-{4-[1-(Propan-2-yl)piperidin-4-yl]-1,4-diazepan-1-yl}-N-(pyridin-2-ylmethyl)pyridine-2-carboxamide], the Ki was 20 to 100 nM. For the molecule `CC(C)N1CCC(N2CCCN(c3cccc(-c4nc(C5CC5)no4)n3)CC2)CC1` [Example 169, 1-[6-(3-Cyclopropyl-1,2,4-oxadiazol-5-yl)pyridin-2-yl]-4-[1-(propan-2-yl)piperidin-4-yl]-1,4-diazepane], the Ki is 500 to 1000 nM. Consider `CC(C)N1CCC(NCCCNc2cccc(C(=O)Nc3ccncc3)n2)CC1` [Example 239, 6-[(3-{[1-(Propan-2-yl)piperidin-4-yl]amino}propyl)amino]-N-(pyridin-4-yl)pyridine-2-carboxamide], for which the Ki was 100 to 500 nM. With `CC(C)N1CCC(N2CCCN(c3cccc(C(=O)NCc4cccnc4)n3)CC2)CC1C` (stereo not drawn) [Example 215, 6-{4-[2-Methyl-1-(propan-2-yl)piperidin-4-yl]-1,4-diazepan-1-yl}-N-(pyridin-3-ylmethyl)pyridine-2-carboxamide], the Ki lay within 20 to 100 nM. As for `CCCCNC(=O)c1cccc(N2CCCN(C3CCN([C@@H](C)C(F)(F)F)CC3)CC2)n1` [Example 93, N-Butyl-6-(4-{1-[(2S)-1,1,1-trifluoropropan-2-yl]piperidin-4-yl}-1,4-diazepan-1-yl)pyridine-2-carboxamide], the figure is 20 to 100 nM; as for `O=C(Nc1ccncc1)c1cccc(N2CC3CCC(C2)N(C2CCN(Cc4ccc(F)cc4Cl)CC2)C3)n1` (stereo not drawn) [Example 209, 6-(6-{1-[(2-Chloro-4-fluorophenyl)methyl]piperidin-4-yl}-3,6-diazabicyclo[3.2.2]nonan-3-yl)-N-(pyridin-4-yl)pyridine-2-carboxamide], 100 to 500 nM.

Values taken from US10995091B2 (Proximagen, LLC, priority 2010, dated 2021).
